{"source": "patent US5786492A", "about": "“Halichondrins” (Pharma Mar, S.A., priority 1992, dated 1998)", "system": "P388 cell line", "assay": "antitumor P388 bioassay", "assay_type": "cell-based, murine", "conditions": "for IC50, murine leukaemia cell (P388 cell line): text comparison of three halichondrins", "from_the_text": "Most of the compounds have been submitted to the antitumor P388 bioassay."}
{"smiles": "C=C1C[C@@H]2CC[C@@]34C[C@H]5O[C@H]6[C@@H](O3)[C@H]3O[C@H](CC[C@@H]3O[C@H]6[C@H]5O4)CC(=O)O[C@@H]3[C@@H](C)[C@@H]4O[C@@H]5C[C@]6(C[C@@H]7O[C@]8(C[C@H](C)[C@@H]9O[C@H]([C@@H](O)C[C@@H](O)CO)C[C@@H]9O8)C[C@H](C)[C@@H]7O6)O[C@@H]5C[C@@H]4O[C@H]3C[C@H]3O[C@@H](CC[C@@H]1O2)C[C@@H](C)C3=C", "note": "[Halichondrin B]", "values": [{"measurement": "IC50 against P388 cell line", "setting": "conc 0.0001 (unit of conc not given)", "result": 0.78, "unit": "ng/mL"}, {"measurement": "IC50 against P388 cell line", "setting": "conc 0.001 (unit of conc not given)", "result": 1.58, "unit": "ng/mL"}, {"measurement": "IC50 against P388 cell line", "setting": "other day, conc 0.001 (unit of conc not given)", "result": "< 0.09", "unit": "ng/mL"}, {"measurement": "IC50, murine leukaemia cell (P388 cell line)", "result": 6.7, "unit": "ng/mL"}]}
{"smiles": "C=C1C[C@@H]2CC[C@@]34C[C@H]5O[C@H]6[C@@H](O3)[C@H]3O[C@H](CC[C@@H]3O[C@H]6[C@H]5O4)CC(=O)O[C@@H]3[C@@H](C)[C@@H]4O[C@@H]5C[C@]6(C[C@@H]7O[C@]8(C[C@H](C)[C@@H]9O[C@@H]%10CC(C(O)CO)O[C@@H]%10C[C@@H]9O8)C[C@H](C)[C@@H]7O6)O[C@@H]5C[C@@H]4O[C@H]3C[C@H]3O[C@@H](CC[C@@H]1O2)C[C@@H](C)C3=C", "note": "(some centres unmarked) [Homohalichondrin B]", "values": [{"measurement": "IC50, murine leukaemia cell (P388 cell line)", "result": 6.4, "unit": "ng/mL"}]}
